Converted amounts (≈) assume the structure as drawn. Structures can show the parent of a compound that is named as a salt.
How the values were obtained:
Format in all cases: cell-based
[1] = test system: Staphylococcus aureus 285; test: Minimum inhibition concentration (MIC), Table 1; details: for MIC: Staphylococcus aureus, 285, Germ: Staphylococcus aureus 285, read-out: Minimum inhibition concentration (MIC); for Minimum inhibition concentration (MIC): Germ: Staphylococcus aureus 285
From the text: (§1) Minimum inhibition concentration (MIC) in γ/ml
Germ: Staphylococcus aureus 285

[2] = test system: Staphylococcus aureus SG 511; test: Minimum inhibition concentration (MIC), Table 5; details: for MIC: Staphylococcus aureus, SG511, Germ: Staphylococcus aureus SG 511, read-out: Minimum inhibition concentration (MIC); for Minimum inhibition concentration (MIC): Germ: Staphylococcus aureus SG 511
From the text: as §1
Germ: Staphylococcus aureus SG 511

Streptococcus D = test: Minimum inhibition concentration (MIC), Table 4; details: Germ: Streptococcus D; for MIC: Streptococcus, read-out: Minimum inhibition concentration (MIC)
From the text: as §1

Streptococcus pyogenes A = test: Minimum inhibition concentration (MIC), Table 3; details: Germ: Streptococcus pyogenes A; for MIC: read-out: Minimum inhibition concentration MIC
From the text: Minimum inhibition concentration MIC in γ/ml
Germ: Streptococcus pyogenes A

SMILES | MIC [1] | MIC [2] | MIC (Streptococcus D) | MIC (Streptococcus pyogenes A) | further results
Cc1csc(SCC2=C(C(=O)O)N3C(=O)C(NC(=O)Cc4ccc(C(=N)N)cc4)C3SC2)n1 (centres unmarked) [Example 5, 3-[(4-methyl-thioazole-2-yl)-thiomethyl]-7-(4-amidinophenyl-acetamido)-Δ3-cephem-4-carboxylic acid] | 0.156 to 0.391 µg/mL (≈ 0.31 to 0.776 µM) | 0.0625 to 0.078 µg/mL (≈ 0.124 to 0.155 µM) | 10 to 50 µg/mL (≈ 19.9 to 99.3 µM) |  | 
N=C(N)Nc1ccc(CC(=O)NC2C(=O)N3C(C(=O)O)=C(CSc4nccs4)CSC23)cc1 (centres unmarked) [Example 8] | 0.5 to 1.25 µg/mL (≈ 0.991 to 2.48 µM) | 0.0625 to 0.078 µg/mL (≈ 0.124 to 0.155 µM) | 10 to 50 µg/mL (≈ 19.8 to 99.1 µM) |  | 
O=C(Cc1ccc(C2=NCCCN2)cc1)NC1C(=O)N2C(C(=O)O)=C(CSc3nc(-c4ccccc4)cs3)CSC12 (centres unmarked) [Example 14, 3-[(4-phenyl-thiazole-2-yl)-thiomethyl]-7-[4-(1,4,5,6-tetrahydropyrimide-2-yl)-phenylacetamido]-Δ 3-cephem-4-carboxylic acid] | 0.5 to 1.25 µg/mL (≈ 0.825 to 2.06 µM) | 0.0625 to 0.078 µg/mL (≈ 0.103 to 0.129 µM) | 10 to 50 µg/mL (≈ 16.5 to 82.5 µM) | 0.008 to 0.0156 µg/mL (≈ 0.0132 to 0.0258 µM) | 
Cc1nnc(SCC2=C(C(=O)O)N3C(=O)C(NC(=O)Cc4ccc(C(=N)N)cc4)C3SC2)s1 (centres unmarked) [Example 26, 3-[(5-methyl-1,3,4-thiadiazole-2-yl)-thiomethyl]-7-(4-amidinophenylacetamido)-Δ 3-cephem-4-carboxylic acid] |  | 0.0625 to 0.078 µg/mL (≈ 0.124 to 0.155 µM) | 10 to 50 µg/mL (≈ 19.8 to 99.1 µM) |  | 
N=C(N)c1ccc(OCC(=O)NC2C(=O)N3C(C(=O)O)=C(CSc4nc(-c5ccccc5)cs4)CSC23)cc1 (centres unmarked) [Example 27, 3-[(4-phenyl-1,3-thiazole-2-yl)-thiomethyl]-7-(4-amidinophenoxy-acetamido)-Δ 3-cephem-4-carboxylic acid] | 0.5 to 1.25 µg/mL (≈ 0.86 to 2.15 µM) | 0.0625 to 0.078 µg/mL (≈ 0.107 to 0.134 µM) | 10 to 50 µg/mL (≈ 17.2 to 86 µM) | 0.000391 to 0.0078 µg/mL (≈ 0.000672 to 0.0134 µM) | 
N=C(N)c1ccc(OCC(=O)NC2C(=O)N3C(C(=O)O)=C(CSc4nnc(-c5ccccc5)o4)CSC23)cc1 (centres unmarked) [Example 28, 3-[(5-5-phenyl-1,3,4-oxadiazole-2-yl)-thiomethyl]-7-(4-amidino-phenoxyacetamido)-Δ 3-cephem-4-carboxylic acid] |  | 0.0196 to 0.0391 µg/mL (≈ 0.0346 to 0.069 µM) |  | 0.000391 to 0.0078 µg/mL (≈ 0.00069 to 0.0138 µM) | Minimum inhibition concentration (MIC) [1]: 0.156 to 0.391 µg/mL; Minimum inhibition concentration (MIC) (Streptococcus D): 10 to 50 µg/mL
N=C(N)c1ccc(OCC(=O)NC2C(=O)N3C(C(=O)O)=C(CSc4ccccn4)CSC23)cc1 (centres unmarked) [Example 29, 3-[(pyride-2-yl)-thiomethyl]-7-(4-amidinophenoxyacetamido)-Δ 3-cephem-4-carboxylic acid] | 0.5 to 1.25 µg/mL (≈ 1 to 2.5 µM) | 0.0625 to 0.078 µg/mL (≈ 0.125 to 0.156 µM) | 10 to 50 µg/mL (≈ 20 to 100 µM) | 0.000391 to 0.0078 µg/mL (≈ 0.000783 to 0.0156 µM) | 
Cc1nnc(SCC2=C(C(=O)O)N3C(=O)C(NC(=O)COc4ccc(C(=N)N)cc4)C3SC2)s1 (centres unmarked) [Example 35, 3-[(5-methyl-1,3,4-thiadiazole-2-yl)-thiomethyl]-7-[4-amidinophenoxy-acetamido]-Δ 3-cephem-4-carboxylic acid hydrochloride] |  |  | 10 to 50 µg/mL | 0.000391 to 0.0078 µg/mL | Minimum inhibition concentration (MIC) ([2]; hydrochloride): 0.0625 to 0.078 µg/mL
Cc1nnc(SCC2=C(C(=O)O)N3C(=O)C(NC(=O)COc4ccc(C(=N)N)cc4)C3SC2)s1 (centres unmarked) [Example 46, 3-[(5-methyl-1,3,4-thiadiazole-2-yl)-thiomethyl]-7-[4-amidinophenoxyacetamido]-Δ 3-cephem-4-carboxylic acid] | 0.5 to 1.25 µg/mL (≈ 0.96 to 2.4 µM) |  |  |  | Minimum inhibition concentration (MIC) [2]: 0.0196 to 0.0391 µg/mL
N=C(N)c1ccc(OCC(=O)NC2C(=O)N3C(C(=O)O)=C(CSc4nnc(N)s4)CSC23)cc1 (centres unmarked) [Example 49, 3-[(5-amino-1,3,4-thiadiazole-2-yl)-thiomethyl]-7-(4-amidinophenoxyacetamido)-Δ 3-cephem-4-carboxylic acid] | 0.5 to 1.25 µg/mL (≈ 0.959 to 2.4 µM) | 0.0625 to 0.078 µg/mL (≈ 0.12 to 0.15 µM) | 10 to 50 µg/mL (≈ 19.2 to 95.9 µM) |  | 
N=C(N)c1ccc(CC(=O)NC2C(=O)N3C(C(=O)O)=C(CSc4nnco4)CSC23)cc1 (centres unmarked) [Example 61, 3-[(1,3,4-oxadiazole-2-yl)-thiomethyl]-7-(4-amidino-phenylacetamido)-Δ 3-cephem-4-carboxylic acid] | 0.5 to 1.25 µg/mL (≈ 1.05 to 2.63 µM) |  | 10 to 50 µg/mL (≈ 21.1 to 105 µM) | 0.008 to 0.0156 µg/mL (≈ 0.0169 to 0.0329 µM) | 
Cc1nnc(SCC2=C(C(=O)O)N3C(=O)C(NC(=O)COc4ccc(C5=NCCN5)cc4)C3SC2)s1 (centres unmarked) [Example 75, 3-[(5-methyl-1,3,4-thiadiazole-2-yl)-thiomethyl]-7-[4-(imidazoline-2-yl)-phenoxyacetamido]-Δ 3-cephem-4-carboxylic acid] | 0.5 to 1.25 µg/mL (≈ 0.915 to 2.29 µM) |  | 10 to 50 µg/mL (≈ 18.3 to 91.5 µM) | 0.000391 to 0.0078 µg/mL (≈ 0.000715 to 0.0143 µM) | 
CCCc1nnc(SCC2=C(C(=O)O)N3C(=O)C(NC(=O)Cc4ccc(C5=NCCCN5)cc4)C3SC2)s1 (centres unmarked) [Example 79, 3-[(5-n-propyl-1,3,4-thiadiazole-2-yl)-thiomethyl]-7-[4-(1,4,5,6-tetrahydropyrimide-2-yl)-phenylacetamido]-Δ 3-cephem-4-carboxylic acid] | 0.5 to 1.25 µg/mL (≈ 0.873 to 2.18 µM) |  | 10 to 50 µg/mL (≈ 17.5 to 87.3 µM) | 0.008 to 0.0156 µg/mL (≈ 0.014 to 0.0272 µM) | 
CCCCc1nnc(SCC2=C(C(=O)O)N3C(=O)C(NC(=O)Cc4ccc(C5=NCCCN5)cc4)C3SC2)o1 (centres unmarked) [Example 81, 3-[(5-n-butyl-1,3,4-oxadiazole-2-yl)-thiomethyl]-7-[4-(1,4,5,6-tetrahydropyrimide-2-yl)-phenyl-acetamido]-Δ 3-cephem-4-carboxylic acid] | 1.6 to 2.5 µg/mL (≈ 2.8 to 4.38 µM) |  | 10 to 50 µg/mL (≈ 17.5 to 87.6 µM) | 0.008 to 0.0156 µg/mL (≈ 0.014 to 0.0273 µM) | 
CCCc1nnc(SCC2=C(C(=O)O)N3C(=O)C(NC(=O)Cc4ccc(C5=NCCCN5)cc4)C3SC2)o1 (centres unmarked) [Example 82, 3-[(5-n-propyl-1,3,4-oxadiazole-2-yl)-thiomethyl]-7-[4-(1,4,5,6-tetrahydropyrimide-2-yl)-phenylacetamido-]-Δ 3-cephem-4-carboxylic acid] | 0.5 to 1.25 µg/mL (≈ 0.898 to 2.25 µM) |  | 10 to 50 µg/mL (≈ 18 to 89.8 µM) | 0.008 to 0.0156 µg/mL (≈ 0.0144 to 0.028 µM) | 
O=C(Cc1ccc(C2=NCCCN2)cc1)NC1C(=O)N2C(C(=O)O)=C(CSc3nnc(-c4ccccc4)o3)CSC12 (centres unmarked) [Example 83, 3-[(5-phenyl-1,3,4-oxadiazole-2-yl)-thiomethyl]-7-[4-(1,4,5,6-tetrahydropyrimide-2-yl)-phenylacetamido]-Δ 3-cephem-4-carboxylic acid] |  |  | 10 to 50 µg/mL (≈ 16.9 to 84.6 µM) | 0.000391 to 0.0078 µg/mL (≈ 0.000662 to 0.0132 µM) | Minimum inhibition concentration (MIC) [1]: 0.5 to 1.25 µg/mL
N=C(N)c1ccc(CC(=O)NC2C(=O)N3C(C(=O)O)=C(CSc4ccc5ccccc5n4)CSC23)cc1 (centres unmarked) [Example 91, 3-quinoline[-2-yl-thiomethyl]-7-[4-amidino-phenyl-acetamido]-Δ 3-cephem-4-carboxylic acid] | 0.156 to 0.391 µg/mL (≈ 0.292 to 0.733 µM) | 0.0625 to 0.078 µg/mL (≈ 0.117 to 0.146 µM) |  | 0.000391 to 0.0078 µg/mL (≈ 0.000733 to 0.0146 µM) | 
CCc1nnc(SCC2=C(C(=O)O)N3C(=O)C(NC(=O)Cc4ccc(C5=NCCCN5)cc4)C3SC2)[nH]1 (centres unmarked) [Example 95, 3-[(5-ethyl-triazole-2-yl)-thiomethyl]-7-[4-(1,4,5,6-tetrahydro-pyrimide-2-yl)-phenylacetamido]-Δ3-cephem-4-carboxylic acid] |  |  |  |  | Minimum inhibition concentration (MIC) [1]: 1.6 to 2.5 µg/mL; Minimum inhibition concentration (MIC) (Streptococcus pyogenes A): 0.008 to 0.0156 µg/mL; Minimum inhibition concentration (MIC) (Streptococcus D): 10 to 50 µg/mL
Cc1cc(C)nc(SCC2=C(C(=O)O)N3C(=O)C(NC(=O)Cc4ccc(C5=NCCCN5)cc4)C3SC2)n1 (centres unmarked) [Example 98] | 0.5 to 1.25 µg/mL (≈ 0.905 to 2.26 µM) |  | 10 to 50 µg/mL (≈ 18.1 to 90.5 µM) | 0.000391 to 0.0078 µg/mL (≈ 0.000707 to 0.0141 µM) | 
O=C(Cc1ccc(C2=NCCCN2)cc1)NC1C(=O)N2C(C(=O)O)=C(CSC3=NNC(c4ccccc4)=CS3)CSC12 (centres unmarked) [Example 99, 3-[(5-phenyl-4H-1,3,4-thiadiazine-2-yl)-thiomethyl]-7[4-(1,4,5,6-tetrahydropyrimide-2-yl)-phenylacetamido]-Δ3-cephem-4-carboxylic acid] | 0.5 to 1.25 µg/mL (≈ 0.805 to 2.01 µM) |  | 10 to 50 µg/mL (≈ 16.1 to 80.5 µM) | 0.008 to 0.0156 µg/mL (≈ 0.0129 to 0.0251 µM) | 
Cc1ccnc(SCC2=C(C(=O)O)N3C(=O)C(NC(=O)Cc4ccc(C5=NCCCN5)cc4)C3SC2)n1 (centres unmarked) [Example 102, 3-[(4-methyl-pyrimide-2-yl)-thiomethyl]-7-[4-(1,4,5,6-tetrahydropyrimide-2-yl)-phenylacetamido]-Δ3-cephem-4-carboxylic acid] | 1.6 to 2.5 µg/mL (≈ 2.97 to 4.64 µM) |  | 10 to 50 µg/mL (≈ 18.6 to 92.8 µM) | 0.008 to 0.0156 µg/mL (≈ 0.0149 to 0.029 µM) | 
CCc1csc(SCC2=C(C(=O)O)N3C(=O)C(NC(=O)Cc4ccc(C5=NCCN5)cc4)C3SC2)n1 (centres unmarked) [Example 115, 3-[(4-ethyl-thiazole-2-yl)-thiomethyl]-7-[4-(imidazoline-2-yl)-phenylacetamido]-Δ3-cephem-4-carboxylic acid] | 1.6 to 2.5 µg/mL (≈ 2.94 to 4.6 µM) |  | 10 to 50 µg/mL (≈ 18.4 to 92 µM) | 0.000391 to 0.0078 µg/mL (≈ 0.000719 to 0.0143 µM) | 
COc1cc(C(=N)N)ccc1OCC(=O)NC1C(=O)N2C(C(=O)O)=C(CSc3nncs3)CSC12 (centres unmarked) [Example 127] | 0.156 to 0.391 µg/mL (≈ 0.291 to 0.729 µM) | 0.0625 to 0.078 µg/mL (≈ 0.116 to 0.145 µM) |  | 0.000391 to 0.0078 µg/mL (≈ 0.000729 to 0.0145 µM) | 
COc1cc(C(=N)N)ccc1OCC(=O)NC1C(=O)N2C(C(=O)O)=C(CSc3nnc(C)s3)CSC12 (centres unmarked) [Example 128, 3-[(5-methyl-1,3,4-thiadizole-2-yl)-thiomethyl]-7(4-amidino-2-methoxy-phenoxy-acetamido)-Δ3-cephem-4-carboxylic acid] | 0.156 to 0.391 µg/mL (≈ 0.283 to 0.71 µM) | 0.0625 to 0.078 µg/mL (≈ 0.114 to 0.142 µM) |  | 0.008 to 0.0156 µg/mL (≈ 0.0145 to 0.0283 µM) | 
